Key:
F143W mutant of Bcl-xL = test: ITC measurement of Bak BH3 peptide binding, F143W mutant; design: species or system human; details: ratio of KA by ITC, F143W vs WT Bcl-xL
WT Bcl-xL = test: NMR titration / chemical shift perturbation; type: binding, human

Row | Substance | affinity increase, F143W mutant versus WT Bcl-xL (F143W mutant of Bcl-xL) | CSP in the cryptic site (WT Bcl-xL; NMR, 160 μM peptide added to 100 μM WT Bcl-xL, 10 mM NaPi pH 6.8, 2 mM DTT, 298 K) | binding to WT Bcl-xL (binding mode) (WT Bcl-xL; concluded from NMR CSPs, 160 μM peptide, 100 μM WT Bcl-xL)
1 | NH3-GQVGRQLAIIGDDINR-COOH [Bak BH3 peptide] | twofold | – | –
2 | NH3-YPLGSPLWRLHS-COOH [P1] | – | clear CSP in the cryptic site | binds to the WT Bcl-xL with the expected binding mode

— article PMC7527212 (Science Advances, 2020)
